This experiment has as its target T1, human GPR119 (Homo sapiens, UniProt Q8TDV5).
T1 sequence (Q8TDV5 1-335): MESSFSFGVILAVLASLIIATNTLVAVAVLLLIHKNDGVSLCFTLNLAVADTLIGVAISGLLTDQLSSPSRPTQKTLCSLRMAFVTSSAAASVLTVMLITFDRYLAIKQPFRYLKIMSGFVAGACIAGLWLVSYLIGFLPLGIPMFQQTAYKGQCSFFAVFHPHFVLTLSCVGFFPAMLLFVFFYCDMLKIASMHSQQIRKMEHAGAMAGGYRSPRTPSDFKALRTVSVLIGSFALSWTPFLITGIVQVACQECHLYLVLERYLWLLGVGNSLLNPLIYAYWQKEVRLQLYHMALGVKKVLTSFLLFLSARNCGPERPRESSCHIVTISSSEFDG
In words: β-lactamase reporter functional assay for GPR119 agonists (hGPR119 HEK293-CRE beta-lactamase cells). In kind it is cell-based. On the set-up: host or cells: hGPR119-HEK293-CRE-beta-lactamase cells. The settings on record: hGPR119 HEK293-CRE beta-lactamase cells; each line is a separate determination; read-out: Human B-lactamase Functional EC50. The method, then: The assay for GPR119 agonists utilizes a cell-based (hGPR119HEK293-CRE beta-lactamase) reporter construct where agonist activation of human GPR119 is coupled to beta-lactamase production via a cyclic AMP response element (CRE). GPR119 activity is then measured utilizing a FRET-enabled beta-lactamase substrate, CCF4-AM (Live Blazer FRET-B/G Loading kit, Invitrogen cat #K1027). […] Fluorescence was measured on an EnVision fluorimetric plate reader, excitation 405 nm, emission 460 nm/535 nm. EC50 determinations were made from agonist-response curves analyzed with a curve fitting program using a 4-parameter logistic dose-response equation.

Data on 1 compound can be found in patent publication US20120052130A1, “GPR 119 MODULATORS” (Pfizer Inc., priority 2009, published 2012).

Turning to `Cc1c(O[C@@H]2[C@@H]3COC[C@H]2CN(C(=O)OC(C)C)C3)ncnc1N1CCc2cc(S(C)(=O)=O)ccc21` [Example 23, Isopropyl (9-syn)-9-({5-methyl-6-[5-(methylsulfonyl)-2,3-dihydro-1H-indol-1-yl]pyrimidin-4-yl}oxy)-3-oxa-7-azabicyclo[3.3.1]nonane-7-carboxylate], the EC50 (in general, the concentration at which the effect is half-maximal) came to 64.7 nM.
